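These data come from cells grown in 96-well plates and exposed to compound for 48 hours at five concentrations. GI50: concentration for 50% inhibition of growth. The concentration for full growth arrest is given as TGI.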
Experiments:
Assay in all cases: NCI-60 cell line screen, 48 h
UACC-62 melanoma = test system: UACC-62 melanoma
DU-145 prostate = test system: DU-145 prostate
RPMI-8226 leukemia = test system: RPMI-8226 leukemia
MDA-MB-231 breast = test system: MDA-MB-231 breast
T-47D breast = test system: T-47D breast
U251 CNS = test system: U251 CNS
SW-620 colon = test system: SW-620 colon
SNB-75 CNS = test system: SNB-75 CNS
SN12C renal = test system: SN12C renal
RXF 393 renal = test system: RXF 393 renal

Compound	GI50 (UACC-62 melanoma) [µM]	TGI (UACC-62 melanoma) [µM]	GI50 (DU-145 prostate) [µM]	GI50 (RPMI-8226 leukemia) [µM]	TGI (RPMI-8226 leukemia) [µM]	GI50 (MDA-MB-231 breast) [µM]	TGI (MDA-MB-231 breast) [µM]	GI50 (T-47D breast) [µM]	GI50 (U251 CNS) [µM]	TGI (U251 CNS) [µM]	GI50 (SW-620 colon) [µM]	TGI (SW-620 colon) [µM]	GI50 (SNB-75 CNS) [µM]	TGI (SNB-75 CNS) [µM]	GI50 (SN12C renal) [µM]	TGI (SN12C renal) [µM]	TGI (DU-145 prostate) [µM]	GI50 (RXF 393 renal) [µM]	TGI (RXF 393 renal) [µM]	TGI (T-47D breast) [µM]
COc1cc2c(cc1OCCCCCn1c(-c3ccco3)nc3ccccc31)N=C[C@@H]1CCCN1C2=O	< 0.01	< 0.0106	< 0.0152	< 0.01	< 0.0309	< 0.0141	0.224	< 0.01	< 0.01	11.2	< 0.01	10.1	< 0.01	0.0334	< 0.01	11.3	–	–	–	–
Cc1cc(NCCCCNc2ccnc3cc(Cl)ccc23)nc(Nc2ccc(C(=O)N3CCCC3)cc2)n1	–	–	3.49	1.34	5.3	2.14	5.12	2.64	2.08	4.8	1.7	3.5	1.91	3.76	2.85	11.4	13.4	1.47	3.08	6.76
O=C(CC/C(CC(=O)c1ccc(Cl)cc1)=N/O)Nc1ccc(Cl)c(Cl)c1	–	> 100	–	–	> 100	–	–	–	–	> 100	–	> 100	–	> 100	–	> 100	–	–	–	–
N#Cc1c(NC(=O)c2cccc3ccccc23)sc2c1CCCC2	0.018	> 25	0.0759	0.0872	> 25	0.148	> 14.5	0.101	0.0622	> 25	0.0245	> 25	0.0351	> 25	0.157	> 25	2.86	0.0331	0.121	> 20.1
COc1cc2c3c(n(CCCCNC(=O)OCC4c5ccccc5-c5ccccc54)c(=O)c2cc1OC)-c1cc2c(cc1C3=O)OCO2	45.7	> 100	8.04	–	–	26.5	> 100	95.8	11.2	65.3	7.75	> 100	28.9	> 100	10.7	93	> 100	15.9	58.6	> 100
CCN(CC)CCCNc1nc2ccccc2c2c(=O)c3cc(Cl)ccc3sc12	1.76	3.39	2.01	3.2	10.1	1.45	3.27	3.85	2.04	4.92	1.77	3.41	4.36	18.3	3.68	15.4	4.13	2.68	10.8	27.7
COC(=O)c1c(C)cc2c(c1O)C1(O)C(=O)c3cc4c(c(O)c3C(=O)C1(OC)C(O)C2)C(=O)C=C(NC1OC(C)C(OC)C(O)C1OC)C4=O (centres undefined)	–	0.0502	–	–	0.303	–	–	–	–	0.663	–	0.164	–	0.277	–	0.243	–	–	0.0525	–
Oc1ccc2c3c1OC1C(=NN=C4CCC5(O)C6Cc7ccc(O)c8c7C5(CCN6CC5CC5)C4O8)CCC4(O)C(C2)N(CC2CC2)CCC314 (centres undefined)	–	41.2	–	–	88.7	–	–	–	–	32.1	–	41.6	–	> 71.8	–	> 59.9	–	–	> 100	–
COc1ccc(Cn2cnc3cc(C(=O)Nc4cccc5ccccc45)ccc32)c(OC)c1	0.0531	> 66.7	0.0439	0.0368	12.5	0.0894	4.31	0.0372	0.0398	> 100	0.0334	> 100	–	–	0.0691	> 100	3.36	0.0355	> 100	> 100
COc1cc2c3c(n(CCCNC(=O)OCC4c5ccccc5-c5ccccc54)c(=O)c2cc1OC)-c1cc2c(cc1C3=O)OCO2	33.4	> 61.2	> 100	> 28.3	> 100	15.9	> 74.2	> 100	1.67	> 87.6	> 100	> 100	34.8	> 86.4	> 100	> 100	> 100	20.1	> 73.9	> 100
COCOCc1cc(OCc2ccccc2)c(OC)cc1Br	–	> 100	–	–	> 100	–	–	–	–	> 100	–	> 100	–	> 100	–	> 100	–	–	> 100	–
N#CCCN(CCC#N)c1ccc(/C=N\c2nc(-c3ccccc3)cs2)cc1	–	> 100	–	–	> 100	–	–	–	–	–	–	> 100	–	> 100	–	> 100	–	–	> 100	–
CC(=O)c1c(O)ccc2c(C)c(C(=O)O)oc12	80.4	> 100	> 100	> 100	> 100	–	–	> 100	> 100	> 100	> 100	> 100	> 100	> 100	–	–	> 100	> 100	> 100	> 100
COC(=O)c1cc2c3ccccc3n3c(=O)c4cc5cc(OC)c(N(S(=O)(=O)c6ccc(C)cc6)S(=O)(=O)c6ccc(C)cc6)cc5nc4c(n1)c23	24.9	> 100	32	–	–	9.62	32.3	> 100	2.62	13.4	> 100	> 100	3.99	20.4	95.7	> 100	> 100	7.56	26.1	> 100
CCOC(=O)N[C@H]1CCc2cc(O)c(OC)c(OC)c2-c2ccc(SC)c(=O)cc21	–	> 100	–	–	> 72.6	–	–	–	–	> 6.92	–	> 100	–	–	–	> 58.9	–	–	0.0207	–
CCCCCCCCCCCCSC(=NC)NC	1.68	3.21	3.12	2.07	4.77	2.02	4.15	2.04	–	–	–	–	1.78	3.55	2.67	7.69	12.3	1.89	4.15	4.77

— PubChem BioAssay (NCI)
